Results taken from patent US8557853B2, “Aryl fluoroethyl ureas acting as alpha 2 adrenergic agents” (Allergan, Inc., priority 2007, dated 2013).
Where two headings read alike, the source gives them in different places.

How the values were obtained:
Format in all cases: cell-based
alpha2A receptor = target: T1, alpha2A receptor (Homo sapiens, UniProt P08913); test: RSAT (Receptor Selection and Amplification Technology) assay, alpha 2A; conditions: for EC50 / Alpha 2A EC50: RSAT, transfected NIH-3T3 cells, "not active" = not active at concentrations less than 10 micromolar; for Alpha 2A IA: intrinsic activity: ratio of maximal effect of drug to maximal effect of standard full agonist brimonidine (UK14304)
T1 construct: expressed in transfected cells; host or cells: NIH-3T3 cells
T1 sequence (P08913 1-465): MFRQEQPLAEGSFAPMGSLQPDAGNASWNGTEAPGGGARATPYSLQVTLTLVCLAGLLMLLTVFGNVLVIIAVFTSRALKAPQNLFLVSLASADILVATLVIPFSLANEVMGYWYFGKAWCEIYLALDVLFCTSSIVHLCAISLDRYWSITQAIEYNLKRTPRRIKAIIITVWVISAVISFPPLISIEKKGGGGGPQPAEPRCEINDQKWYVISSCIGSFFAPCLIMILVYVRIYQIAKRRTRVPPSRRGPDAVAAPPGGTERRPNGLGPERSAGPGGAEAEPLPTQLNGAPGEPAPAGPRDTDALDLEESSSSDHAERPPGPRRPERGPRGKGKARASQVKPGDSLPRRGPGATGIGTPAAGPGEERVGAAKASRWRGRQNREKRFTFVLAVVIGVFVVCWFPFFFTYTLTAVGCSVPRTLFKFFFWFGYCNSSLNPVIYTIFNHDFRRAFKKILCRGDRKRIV
From the text: (§1) The aryl fluoroethyl ureas of the invention are agonists of alpha2 adrenergic receptors. […] Al, 1995, Pharmacol. Toxicol. 76, pp. 308-311 (incorporated herein by reference) and is also described below. Another reference pertinent to this assay is Conklin et al. (1993) Nature 363:274-6, Receptor Selection and Amplification Technology (RSAT) assay, also incorporated herein by reference.
(§2) The RSAT assay measures a receptor-mediated loss of contact inhibition that results in selective proliferation of receptor-containing cells in a mixed population of confluent cells. The increase in cell number is assessed with an appropriate transfected marker gene such as ∃-galactosidase, the activity of which can be easily measured in a 96-well format. Receptors that activate the G protein, Gq, elicit this response. Alpha 2 receptors, which normally couple to Gi, activate the RSAT response when coexpressed with a hybrid Gq protein that has a Gi receptor recognition domain, called Gq/i5.
(§3) NIH-3T3 cells are plated at a density of 2×10^6 cells in 15 cm dishes and maintained in Dulbecco's modified Eagle's medium supplemented with 10% calf serum. One day later, cells are cotransfected by calcium phosphate precipitation with mammalian expression plasmids encoding p-SV-β-galactosidase (5-10 μg), receptor (1-2 μg) and G protein (1-2 μg). 40 μg salmon sperm DNA may also be included in the transfection mixture. Fresh media is added on the following day and 1-2 days later, cells are harvested and frozen in 50 assay aliquots. Cells are thawed and 100 μl added to 100 μl aliquots of various concentrations of drugs in triplicate in 96-well dishes. Incubations continue 72-96 hr at 37° C. After washing with phosphate-buffered saline, ∃-galactosidase enzyme activity is determined by adding 200 μl of the chromogenic substrate (consisting of 3.5 mM o-nitrophenyl-β-D-galactopyranoside and 0.5% nonidet P-40 in phosphate buffered saline), incubating overnight at 30° C. and measuring optical density at 420 nm. The absorbance is a measure of enzyme activity, which depends on cell number and reflects a receptor-mediated cell proliferation. The efficacy or intrinsic activity is calculated as a ratio of the maximal effect of the drug to the maximal effect of a standard full agonist for each receptor subtype. Brimonidine, also called UK14304, the chemical structure of which is shown below, is used as the standard agonist for the alpha2A, alpha2B and alpha2C receptors.
(§4) The results of the RSAT assay with several exemplary compounds of the invention are disclosed in Table 1 below together with the chemical structures of these compounds. “Not active” means the compounds are not active at concentrations less than 10 micromolar.

alpha2B receptor = target: T2, alpha2B receptor (Homo sapiens, UniProt P18089); test: RSAT (Receptor Selection and Amplification Technology) assay, alpha 2B; conditions: for Alpha 2B IA: intrinsic activity: ratio of maximal effect of drug to maximal effect of standard full agonist brimonidine (UK14304)
T2 construct: expressed in transfected cells; host or cells: NIH-3T3 cells
T2 sequence (P18089 1-450): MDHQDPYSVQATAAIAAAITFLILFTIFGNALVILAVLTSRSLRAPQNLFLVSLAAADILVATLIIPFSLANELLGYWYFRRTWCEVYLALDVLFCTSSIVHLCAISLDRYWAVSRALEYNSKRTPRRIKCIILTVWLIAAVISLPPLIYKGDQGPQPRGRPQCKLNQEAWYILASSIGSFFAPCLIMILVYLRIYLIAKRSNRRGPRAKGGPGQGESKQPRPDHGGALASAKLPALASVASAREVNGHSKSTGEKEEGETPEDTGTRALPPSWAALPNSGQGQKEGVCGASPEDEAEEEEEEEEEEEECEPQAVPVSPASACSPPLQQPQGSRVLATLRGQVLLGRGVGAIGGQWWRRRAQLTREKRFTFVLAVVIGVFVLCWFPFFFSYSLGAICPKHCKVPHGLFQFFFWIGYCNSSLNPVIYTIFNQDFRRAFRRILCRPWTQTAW
Description: as §2, §3

alpha2C receptor = target: T3, alpha2C receptor (Homo sapiens, UniProt P18825); test: RSAT (Receptor Selection and Amplification Technology) assay, alpha 2C; conditions: for EC50 / Alpha 2C EC50: RSAT, transfected NIH-3T3 cells, "not active" = not active at concentrations less than 10 micromolar; for Alpha 2C IA: intrinsic activity: ratio of maximal effect of drug to maximal effect of standard full agonist brimonidine (UK14304)
T3 construct: expressed in transfected cells; host or cells: NIH-3T3 cells
T3 sequence (P18825 1-462): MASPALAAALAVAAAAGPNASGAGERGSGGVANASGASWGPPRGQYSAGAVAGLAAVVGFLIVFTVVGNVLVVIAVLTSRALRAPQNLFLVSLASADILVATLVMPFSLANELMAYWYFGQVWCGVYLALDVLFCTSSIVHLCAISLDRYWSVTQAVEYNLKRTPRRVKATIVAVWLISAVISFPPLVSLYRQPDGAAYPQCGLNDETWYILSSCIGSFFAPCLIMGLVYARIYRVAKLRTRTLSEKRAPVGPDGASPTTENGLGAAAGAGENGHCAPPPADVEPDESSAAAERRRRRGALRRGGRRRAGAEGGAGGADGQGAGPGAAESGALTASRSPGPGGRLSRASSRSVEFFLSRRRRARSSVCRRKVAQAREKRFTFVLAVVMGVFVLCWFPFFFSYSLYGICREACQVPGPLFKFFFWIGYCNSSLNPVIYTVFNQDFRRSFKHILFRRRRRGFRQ
From the text: as §1, §2, §3, §4

[1] = RSAT, transfected NIH-3T3 cells, "not active" = not active at concentrations less than 10 micromolar, read-out: Alpha 2B EC50

Row | Compound | EC50 (alpha2A receptor) [nM] | Alpha 2A IA (alpha2A receptor) | EC50 (alpha2B receptor; [1]) [nM] | Alpha 2B IA (alpha2B receptor) | EC50 (alpha2C receptor) [nM] | Alpha 2C IA (alpha2C receptor) | Alpha 2A EC50 (alpha2A receptor) | Alpha 2C EC50 (alpha2C receptor) | EC50 (alpha2B receptor) [nM]
1 | CCc1ccccc1NC(=O)NCCF [Compound 24, 1-(2-ethyl-phenyl)-3-(2-fluoro-ethyl)-urea] | 2670 | 0.35 | > 2000 | 0.82 | > 2000 | 0.36 |  |  | 
2 | Cc1cccc(C)c1NC(=O)NCCF [Compound 23, 1-(2,6-dimethyl-phenyl)-3-(2-fluoro-ethyl)-urea] | > 2000 | 0.61 | 679 | 0.75 | > 2000 | 0.43 |  |  | 
3 | O=C(NCCF)Nc1cccc2c1CCCC2 [Compound 28, 1-(2-fluoro-ethyl)-3-(5,6,7,8-tetrahydro-naphthalen-1-yl)-urea] | 385 | 0.43 | 157 | 0.87 | 285 | 0.74 |  |  | 
4 | O=C(NCCF)Nc1cccc2c1CCC2 [Compound 29, 1-(2-fluoro-ethyl)-3-indan-4-yl-urea] | 940 | 0.37 | 1220 | 0.89 | 2550 | 0.63 |  |  | 
5 | Cc1cccc(C(NC(=O)NCCF)c2ccc(C)s2)c1 (stereo not shown) [Compound 34, 1-(2-fluoro-ethyl)-3-[(5-methyl-thiophen-2-yl)-m-tolyl-methyl]-urea] |  |  | 829 | 0.41 |  |  | not active | not active | 
6 | O=C(NCCF)Nc1cccc2ccccc12 [Compound 30, 1-(2-fluoro-ethyl)-3-naphthalen-1-yl-urea] | 1060 | 0.74 | 458 | 0.9 | > 2000 | 0.66 |  |  | 
7 | Cc1ccnc(CNC(=O)NCCF)c1 [Compound 39, 1-(2-Fluoro-ethyl)-3-(4-methyl-pyridin-2-ylmethyl)-urea] | 2170 | 0.36 | 343 | 0.77 | 1560 | 0.61 |  |  | 
8 | O=C(NCCF)NCc1ccccc1F [Compound 3, 1-(2-fluoro-benzyl)-3-(2-fluoro-ethyl)-urea] |  |  | 148 | 1.1 | 363 | 0.63 | not active |  | 
9 | O=C(NCCF)NCc1ccccc1C(F)(F)F [Compound 8, 1-(2-fluoro-ethyl)-3-(2-trifluoromethyl-benzyl)-urea] |  |  | 569 | 0.8 | 950 | 0.93 | not active |  | 
10 | Cc1cccc(CNC(=O)NCCF)c1Cl [Compound 14, 1-(2-chloro-3-methyl-benzyl)-3-(2-fluoro-ethyl)-urea] | 366 | 0.34 | 8.5 | 0.85 | 101 | 0.66 |  |  | 
11 | O=C(NCCF)NCc1cccc(O)c1 [Compound 42, 1-(2-fluoro-ethyl)-3-(3-hydroxy-benzyl)-urea] | 3520 | 0.33 | 137 | 0.81 | 1060 | 0.67 |  |  | 
12 | O=C(NCCF)NCc1ccccc1I [Compound 12, 1-(2-fluoro-ethyl)-3-(2-iodo-benzyl)-urea] |  |  | 277 | 0.89 | 489 | 0.78 | not active |  | 
13 | O=C(NCCF)NCc1cccc(Cl)c1Cl [Compound 10, 1-(2,3-dichloro-benzyl)-3-(2-fluoro-ethyl)-urea] |  |  | 88 | 0.91 | 446 | 0.86 | not active |  | 
14 | COc1c(C)cccc1CNC(=O)NCCF [Compound 17, 1-(2-fluoro-ethyl)-3-(2-methoxy-3-methyl-benzyl)-urea] | 678 | 0.79 | 40 | 1.25 | 685 | 0.93 |  |  | 
15 | O=C(NCCF)NCc1cccc(Br)c1 [Compound 7, 1-(3-bromo-benzyl)-3-(2-fluoro-ethyl)-urea] | > 2000 | 0.46 | 355 | 0.84 | 556 | 0.81 |  |  | 
16 | O=C(NCCF)NCc1cccc(Br)n1 [Compound 38, 1-(6-bromo-pyridin-2-ylmethyl)-3-(2-fluoro-ethyl)-urea] |  |  | 592 | 0.85 | 2160 | 0.65 | not active |  | 
17 | O=C(NCCF)NCc1cccc(C(F)(F)F)c1Cl [Compound 11, 1-(2-chloro-3-trifluoromethyl-benzyl)-3-(2-fluoro-ethyl)-urea] |  |  | 106 | 0.9 | 1090 | 0.66 | not active |  | 
18 | Cc1ccc(CNC(=O)NCCF)o1 [Compound 40, 1-(2-fluoro-ethyl)-3-(5-methyl-furan-2-ylmethyl)-urea] |  |  |  | 0.83 | 2630 | 0.56 | not active |  | 968
19 | Cc1cccnc1CNC(=O)NCCF [Compound 37, 1-(2-fluoro-ethyl)-3-(3-methyl-pyridin-2-ylmethyl)-urea] |  |  |  | 0.40 |  |  | not active | not active | 3540
20 | O=C(NCCF)Nc1ccc2c(c1)CCC2 [Compound 21, 1-(2-fluoro-ethyl)-3-indan-5-yl-urea] |  |  | 115 | 0.33 |  |  | not active | not active | 
21 | Cc1cc(CNC(=O)NCCF)nn1C [Compound 44, 1-(1,5-dimethyl-1H-pyrazol-3-ylmethyl)-3-(2-fluoro-ethyl)-urea] |  |  | 2280 | 0.67 | 4160 | 0.31 | not active |  | 
